Data published in publication PMC4301629 (PLoS ONE, 2015).

Tests used:
α1A-AR [1] = assay: Ca2+ transient response (FLIPR, fluo3) in α1A-AR transduced HEK-293/EBNA cells; type: cell-based; conditions: 100 μM Iso, α1A-AR_HEK-293/EBNA
Experimental: Prior to experiments, cells were transduced with baculovirus strains designed for transient expression of α1A-AR or aldehyde oxidase (negative control). This was performed by incubating cells with virus (MOI 100–150) for 3 to 4 h, followed by exchange into fresh serum free growth medium supplemented with 4 mM sodium butyrate (NaBu). Cells were grown for another 14 to 18 h and then examined for agonist-evoked responses in transient Ca^2+ release, IP accumulation or pERK activation assays. The surface receptor expression density was determined by flow cytometry via immunofluorescence labeling of an N-terminal HA epitope tag on the receptor and radioligand binding in partially purified membranes.
Cells were resuspended in Hank’s balanced salt solution (Invitrogen) supplemented with 2 mM CaCl2, 10 mM HEPES pH 7.4, 2.5 mM probenecid, plus 1g/L each of glucose and bovine serum albumin (BSA), and seeded in poly-D-lysine coated 96-well black plates with transparent bottom (Costar) at a density of 50,000 cells/0.1 mL per well. Cells were then incubated for 1 h at 37°C with an additional 0.1 mL of buffer containing 4 μM fluo3-AM that was diluted from a stock solution containing 1 mM fluo3-AM dye in DMSO with 10% pluronic acid. After dye loading incubation, plates were washed twice with 100 μL of buffer and refilled with 100 μL of assay buffer. In experiments testing the effect of antagonists, 25 μL of buffer from wells of washed cells were replaced with 25 μL of vehicle or 4× antagonist solution. Pre-incubation of ligand with dye-loaded cells proceeded for 5–30 minutes immediately prior to measurements of agonist-evoked responses. Agonist-evoked Ca^2+ mobilization responses of cell populations were monitored at room temperature simultaneously in all wells of the assay plate using the plate-imaging fluorometric reader FLIPR (MDS Analytical Technologies, Sunnyvale, CA). […] The amplitudes of Ca^2+ transient responses are reported as ΔF/F0, or fold-change in Ca^2+ dye fluorescence relative to the baseline signal ΔF/F0 = (F-F0)/F0 +1 (where ΔF is maximal fluorescence intensity observed following agonist application, F0 = baseline fluorescence, or average intensity measured over the 10 s interval prior to agonist application). Image acquisition rates were varied from 1 Hz during the first 100 s of measurements to 0.5 Hz for the remaining time of the recording.
Graphs shown reflect either pooled or representative data (see figure legends). For concentration-response analysis, results from Ca^2+ mobilization experiments were plotted as ΔF/F0 vs. agonist concentration and fit to a sigmoidal concentration-response equation using the GraphPad Prism software package. In cases where biphasic concentration-response curves were observed data were fit to a two-site concentration-response model: F(X)=R0+(Rmax−R0)[Fr1/(1+10^X-logEC50,1)+(1−Fr1)/(1+10^X-logEC50,2)] (1) , where X is the logarithm of the agonist concentration, R0 and Rmax are respectively the response minimum and maximum; Fr1 is the response fraction attributable to receptor characterized by half effective concentration of the first response phase (EC50,1), with the reminder response attributable to the second half effective concentration (EC50,2). For radioligand binding experiments, B max values were calculated from maximum binding using the equation B max = (SB × ([…] + [L])/[L]), where SB is the specific binding expressed as fmol per mg of membrane protein, and [L] is the ligand concentration.

α1A-AR [2] = molecular target: T1, α1A-AR (Homo sapiens, UniProt P35348); assay: Translocation of GFP-tagged β-arrestin-1/2 in HEK293 cells expressing FLAG-α1A-AR (confocal microscopy); type: cell-based; design: expressed in transfected cells; host or cells: HEK-293/EBNA (baculovirus transduction, NaBu induction); conditions: HEK293, 1 μM A-61603 or 1 mM Iso
T1 sequence (P35348 1-466): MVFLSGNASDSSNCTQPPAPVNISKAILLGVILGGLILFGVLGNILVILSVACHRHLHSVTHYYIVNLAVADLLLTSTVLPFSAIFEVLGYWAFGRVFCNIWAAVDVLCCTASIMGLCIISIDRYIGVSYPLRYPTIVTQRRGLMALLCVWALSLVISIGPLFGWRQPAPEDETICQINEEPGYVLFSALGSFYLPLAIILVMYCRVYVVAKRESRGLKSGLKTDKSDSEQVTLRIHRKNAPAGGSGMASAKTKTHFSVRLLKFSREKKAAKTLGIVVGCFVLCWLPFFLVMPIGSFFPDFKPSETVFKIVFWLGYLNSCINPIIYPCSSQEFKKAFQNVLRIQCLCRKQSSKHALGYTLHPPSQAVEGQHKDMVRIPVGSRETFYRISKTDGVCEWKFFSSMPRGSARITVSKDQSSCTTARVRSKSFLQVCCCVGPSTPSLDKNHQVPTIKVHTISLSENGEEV
Experimental: HEK293 cells were transiently co-transfected with FLAG-tagged α1A – AR and one of the following GFP-tagged proteins: Rab5 (Rab5 Q79L) variant, Rab11 (Rab11 S25N) variant, β-arrestin-1 or β-arrestin-2. Rab5 and Rab11 were kindly provided by Dr. Marino Zerial (Max Planck Institute of Molecular Cell Biology and Genetics, Dresden, Germany). […] After treatment, cells were fixed with freshly prepared 3.7% paraformaldehyde in PBS for 15 min at room temperature. Subsequently, cells were permeabilized with 0.1% Triton X-100 (Sigma-Aldrich) in PBS for 5 min, followed by nonspecific binding site blocking with 3% normal serum (Santa Cruz Biotechnology) in PBS for 1 h. Incubation with Alexa Fluor-568 conjugated anti-FLAG antibodies in blocking solution was done as directed by the manufacturer. Confocal microscopy was performed using a Zeiss LSM 510 META laser scanning microscope (Carl Zeiss, Inc., Thornwood, NY) equipped with a 60X objective, using the following laser wavelengths: excitation at 488 nm and emission at 505–530 nm; excitation at 543 nm and emission at 560–615 nm.
HEK293 cells were co-transfected with FLAG-tagged α1A – AR and GFP- tagged β-arrestin-1 (left panels) or β-arrestin-2 (right panels). […] Cells were then fixed, permeabilized, stained with Alexa Fluor-568 conjugated anti-FLAG antibodies, and analyzed employing confocal microscopy.

With `CC(C)NCC(O)c1ccc(O)c(O)c1` (stereo not drawn) [Iso, isoproterenol] the “decline from peak amplitude within 100 sec” value (α1A-AR [1]) was over 75%, the “delay from addition of agonist to the rise in Ca2+” value (α1A-AR [1]) was 5 to 10 s and the “translocation of β-arrestin-1 / β-arrestin-2” value (α1A-AR [2]) was “did not cause visible β-arrestin rearrangement”.
